Laboratory results reported in US9795656B2, “Treatment of ocular diseases” (MARLYN NUTRACEUTICALS INC, priority 2006, dated 2017).
“Also recorded” adds a separate entry of the source.

How the values were obtained:
HUVEC [1] = assay: MTT assay with treated HUVEC (antiproliferative activity); format: cell-based, Human; conditions: for inhibition of VEGF stimulated proliferation (MTT): VEGF stimulated HUVEC, FIG. 5; for inhibition of VEGF stimulated proliferation (MTT) / % growth (MTT) / antiproliferative effect (MTT), in words: 48 hours; for % growth (MTT): at concentrations as low as 25 μg/ml; for antiproliferative effect (MTT), in words: concentration-response
Experimental: The antiproliferative activity of bromelain, nattokinase and papain and their mixtures was assessed using an 3-(4,5-dimethylthiazol-2-yl)-2,5-diphenyltetrazoliumbromide (MTT) assay. […] Cells were incubated further 48 hours at 37° C./95% humidity. The MTT Assay was carried out using an EZ4U MTT Kit (Biomedica, Austria; according to the instructions of the manufacturer). Optical density was measured at 450 nm with a reference wavelength of 620 nm. Results are expressed as % proliferation with 100% being the proliferation of the VEGF treated control.
To assess a possible antiproliferative activity of Rutosid an 3-(4,5-dimethylthiazol-2-yl)-2,5-diphenyltetrazoliumbromide (MTT) Assay was used. […] Cells were incubated further 48 hours at 37° C./95% humidity. The MTT-Assay was carried out using a EZ4U MTT Kit (Biomedica, Austria) according to the instructions of the manufacturer) Optical density was measured at 450 nm with a reference wavelength of 620 nm. Results are expressed as % proliferation with 100% being the proliferation of the VEGF treated control.

HUVEC [2] = system: HUVEC
Experimental: (§1) The antiproliferative activity of bromelain, nattokinase and papain was assessed using a Lactate Dehydrogenase (LDH) Assay. Human Umbilical Vein Endothelial Cells (HUVEC) from semi-confluent cultures were harvested by treatment with trypsin, seeded at a density of 2500 cells/well into 96-well microplates, previously coated with human fibronectin. In oder to allow proper attachment, cells were incubated for 24 hours in Endothelial Basal medium 2MV (Cambrex Biochemicals) containing 10% Fetal Calf Serum, 60 μg/ml Endothelial cell Growth Supplement, hrEGF, hrFGF2, hrIGF, hrVEGF, Ascorbic Acid and Heparin. After attachment, cells were starved by incubation at 37° C./95% humidity in Medium 199+10% Fetal Calf Serum (FCS) without growth factors. After 24 hours, the supernatant was replaced by Medium 199 containing 10% FCS, VEGF and varying concentrations of the enzymes. After an incubation period of 48 hours, supernatant was harvested and an LDH assay was performed according to the instructions of the manufacturer (Promega, Germany): 50 μl aliquots from all wells were transferred to a fresh 96-well flat-bottom (enzymatic assay) plate. The Assay Buffer was added to the Substrate Mix and mixed gently. 50 μl of reconstituted Substrate Mix was added to each well. The plate was incubated for 30 minutes at room temperature. 50 μl of Stop Solution was added to each well. Within one hour, optical density was measured at 490 nm with a reference wavelength of 620 nm. Results are expressed as % untreated control.
(§2) To test a possible cytotoxic activity of rutosid an Lactate Dehydrogenase (LDH) Assay was used. Human Umbilical Vein Endothelial Cells (HUVEC) from semi-confluent cultures were harvested by treatment with trypsin, seeded at a density of 2500 cells/well into 96-well microplates, previously coated with human fibronectin. In oder to allow proper attachment, cells were incubated for 24 hours in Endothelial Basal medium 2MV (Cambrex Biochemicals) containing 10% Fetal Calf Serum, 60 μg/ml Endothelial cell Growth Supplement, hrEGF, hrFGF-2, hrIGF, hrVEGF, ascorbic acid and heparin. After attachment, cells were starved by incubation at 37° C./95% humidity in Medium 199+10% Fetal Calf Serum (FCS) without growth factors. After 24 hours, the supernatant was replaced by Medium 199 containing 10% FCS, VEGF and varying concentrations of the enzymes. After an incubation period of 48 hours, supernatant was harvested and an LDH assay was performed according to the instructions of the manufacturer (Promega, Germany): 50 μl aliquots from all wells where transferred to a fresh 96-well flat-bottom (enzymatic assay) plate. […] Within one hour, optical density was measured at 490 nm with a reference wavelength of 620 nm. Results are expressed as % untreated control.

HUVEC [3] = assay: Tube formation assay on Matrigel (antiangiogenic activity); format: cell-based, Human; conditions: for inhibition of VEGF induced tube formation: FIG. 3, FIG. 7 right; for inhibition of spontaneous tube formation: no VEGF, FIG. 7 left; for ability to inhibit or prevent angiogenesis: general statement on proteases of mammalian origin
Experimental: Methods: Antiangiogenic activity was assessed using a tube formation assay. Growth factor reduced Matrigel (Becton Dickinson, Vienna) was thawed at a temperature of 4° C. 50 μl per well were pipetted into the wells of a 96 well microtiter plate. The plate was left at 4° C. for 24 hours. Prior to the experiment, the plate was incubated for 30-60 minutes at 37° C. to solidify the gel. HUVEC were harvested by treatment with trypsin and seeded into Matrigel coated 96 well microplates at a density of 20.000 cells per well in Endothelial Growth Medium 2(MV) (Lonza, Brussels) supplemented with ascorbic acid and hydrocortisone according to the instructions of the manufacturer as well as […] heparin and 1% Fetal Bovine Serum. Drugs and VEGF were added to the desired concentrations. After further 16 hrs to 18, wells were photographed. The total length of tubes was determined using the ImageJ Software, measured by the Neuron Length Determination Plugin.

HUVEC [4] = assay: LDH release into supernatant of treated HUVEC (toxicity test); conditions: up to a level of including 25 μg/ml; 2 days of incubation
Experimental: as §1, §2

## C[C@@H]1O[C@@H](OC[C@H]2O[C@@H](Oc3c(-c4ccc(O)c(O)c4)oc4cc(O)cc(O)c4c3=O)[C@H](O)[C@@H](O)[C@@H]2O)[C@H](O)[C@H](O)[C@H]1O [Rutosid]
HUVEC [1]
  inhibition of VEGF stimulated proliferation (MTT): No inhibition of proliferation
HUVEC [1]; listed as rutosid
  inhibition of VEGF stimulated proliferation (MTT): does not inhibit
HUVEC [2]
  toxicity in HUVEC (LDH), overall: negligible

## serrapeptase
HUVEC [3]
  inhibition of VEGF induced tube formation: significant decrease; also recorded: inhibited formation of tubes almost to the same extend as in untreated HUVEC
  inhibition of spontaneous tube formation: inhibited formation of tubes

## chymotrypsin [reference compound]
HUVEC [3]
  inhibition of VEGF induced tube formation: but not chymotrypsin or trypsin inhibited formation of tubes
  ability to inhibit or prevent angiogenesis: not able to inhibit or prevent angiogenesis
  inhibition of spontaneous tube formation: but not chymotrypsin or trypsin inhibited formation of tubes

## ficin
HUVEC [3]
  inhibition of VEGF induced tube formation: significant decrease; also recorded: inhibited formation of tubes almost to the same extend as in untreated HUVEC
  inhibition of spontaneous tube formation: inhibited formation of tubes

## trypsin [reference compound]
HUVEC [3]
  inhibition of VEGF induced tube formation: but not chymotrypsin or trypsin inhibited formation of tubes
  ability to inhibit or prevent angiogenesis: not able to inhibit or prevent angiogenesis
  inhibition of spontaneous tube formation: but not chymotrypsin or trypsin inhibited formation of tubes

## Bromelain
HUVEC [1]; 100% = VEGF treated control
  % growth (MTT): 75%
HUVEC [1]
  antiproliferative effect (MTT), in words: clear antiproliferative effect
HUVEC [4]
  toxic effects on HUVEC (LDH release): did not show toxic effects
HUVEC [3]
  inhibition of VEGF induced tube formation: inhibited formation of tubes almost to the same extend as in untreated HUVEC
  inhibition of spontaneous tube formation: inhibited formation of tubes
HUVEC [3]; listed as bromelain
  inhibition of VEGF induced tube formation: significant decrease

## Nattokinase
HUVEC [1]
  antiproliferative effect (MTT), in words: clear antiproliferative effect
HUVEC [4]
  toxic effects on HUVEC (LDH release): did not show toxic effects
HUVEC [3]
  inhibition of VEGF induced tube formation: significant decrease; also recorded: inhibited formation of tubes almost to the same extend as in untreated HUVEC
  inhibition of spontaneous tube formation: inhibited formation of tubes

B1: Papain (protein, UniProt P00784 134-345, looked up)
Papain: IPEYVDWRQKGAVTPVKNQGSCGSCWAFSAVVTIEGIIKIRTGNLNEYSEQELLDCDRRSYGCNGGYPWSALQLVAQYGIHYRNTYPYEGVQRYCRSREKGPYAAKTDGVRQVQPYNEGALLYSIANQPVSVVLEAAGKDFQLYRGGIFVGPCGNKVDHAVAAVGYGPNYILIKNSWGTGWGENGYIRIKRGTGNSYGVCGLYTSSFYPVKN
HUVEC [1]; 100% = VEGF treated control
  % growth (MTT): 75%
HUVEC [1]; combinations of bromelain, nattokinase and papain in presence of VEGF, 100% = VEGF treated control
  % Proliferation: 75.45%
HUVEC [1]
  antiproliferative effect (MTT), in words: clear antiproliferative effect
HUVEC [4]
  toxic effects on HUVEC (LDH release): did not show toxic effects
HUVEC [3]
  inhibition of VEGF induced tube formation: significant decrease; also recorded: inhibited formation of tubes almost to the same extend as in untreated HUVEC
  inhibition of spontaneous tube formation: inhibited formation of tubes
HUVEC [3]; in presence of VEGF, 100% = samples treated with VEGF only
  % tube formation: 60.14%
